What was measured:
Type in all cases: functional
A549 = experiment: Inhibition of growth of human NSCL non small cell lung carcinoma cell line ([…]) after 72 hr of drug exposure
A121 = experiment: Inhibition of growth of human ovarian tumor cell line (A121) after 72 hr of drug exposure
HT-29 = experiment: Inhibition of growth of human colon tumor cell line (HT-29) after 72 hr of drug exposure
MCF7R = experiment: Inhibition the growth of doxorubicin resistant human breast tumor cell line (MCF-7-R) after 72 hr of drug exposure
MCF7 = experiment: Inhibition of the growth of human breast tumor cell line (MCF-7) after 72 hr of drug exposure

IC50 (MCF7R) [nM] | SMILES | Inhibition (A549) [%] | Inhibition (A121) [%] | Inhibition (HT-29) [%] | Inhibition (MCF7) [%]
1540 | CC(=O)O[C@@]12CO[C@@H]1C[C@H](O)[C@@]1(C)C(=O)[C@H](OC(=O)CCc3cccc(C(=O)c4ccccc4)c3)C3=C(C)C(OC(=O)[C@H](O)[C@@H](NC(=O)c4ccccc4)c4ccccc4)C[C@@](O)([C@@H](OC(=O)c4ccccc4)C12)C3(C)C (stereo not given in full) | 40.8 | 32.8 | 40.8 | 20.7
300 | CC(=O)O[C@H]1C(=O)[C@@]2(C)[C@H]([C@H](OC(=O)c3ccccc3)[C@]3(O)C[C@H](OC(=O)[C@H](O)[C@@H](NC(=O)c4ccccc4)c4ccccc4)C(C)=C1C3(C)C)[C@]1(OC(C)=O)CO[C@@H]1C[C@@H]2O [PACLITAXEL] | 3.6 | 6.1 | 3.2 | 1.7
450 | CC(=O)O[C@H]1C(=O)[C@@]2(C)C([C@H](OC(=O)c3ccccc3)[C@]3(O)CC(OC(=O)[C@H](O)[C@@H](NC(=O)c4ccccc4)c4ccccc4)C(C)=C1C3(C)C)[C@]1(OC(C)=O)CO[C@@H]1C[C@@H]2OC(=O)CCc1cccc(C(=O)c2ccccc2)c1 (stereo not given in full) | 13 | 8.8 | 6.5 | 2.4
